Measurements taken from patent US20080125493A1, “Use of agomelatine in obtaining medicaments intended for the treatment of periventricular leukomalacia” (LES LABORATOIRES SERVIER, priority 2006, published 2008).

Test system: lesions of the white matter of the brain produced by intracerebral injection of ibotenate
Experiment: Neuroprotective effects on ibotenate-induced white matter lesions in 5-day-old baby mice
Assay type: in vivo
Protocol: Immediately after the administration of 10 μg of ibotenate, there are injected by the i.p. route, in a final volume of 5 μl, from 0.005 to 5 mg/kg of agomelatine, 10 mg/kg of fluoxetine used as standard antidepressant control, or the solvent alone. In a second experiment, the i.p. injection following the intracerebral injection of ibotenate is carried out 2 hours, 4 hours or 8 hours later.

Compound	reduction of the lesions of the white matter (5 mg/kg i.p., co-administration immediately after 10 μg ibotenate intracerebral, 5-day-old mice) [%]	effect on the lesions of the white matter (dose dependence) (0.005 to 5 mg/kg i.p., co-administration immediately after 10 μg ibotenate)	course of lesion size over time (co-treated concomitantly or after 8 hours, same lesions for first 24 hours, then over the next 4 days)	neuroprotection with delayed administration (i.p. administration 8 hours after the injection of ibotenate)	neuroprotection with delayed administration (i.p. administration between 0 and 4 hours after the injection of ibotenate)	effect on the lesions of the white matter (10 mg/kg i.p., co-administration immediately after 10 μg ibotenate)
COc1ccc2cccc(CCNC(C)=O)c2c1 [agomelatine, N-[2-(7-methoxy-1-naphthyl)ethyl]acetamide]	59	dose-dependent reduction of the lesions of the white matter	very major regression	significant neuroprotection is restored	decreases	
CNCCC(Oc1ccc(C(F)(F)F)cc1)c1ccccc1 (stereo not drawn) [fluoxetine, reference compound]						No significant effect
